# Laboratory results published in patent US20090012152A1, “Use of Tetramic Acid Derivatives for Controlling Insects from the Genus of the Plane Lice (Sternorrhyncha)” (Bayer CropScience Aktiengesellschaft, priority 2005, published 2009).
# Assays:
# Format in all cases: in vivo
# Aphis fabae = assay: Example 51: broad beans treated against Aphis fabae; settings: nymphs on leaves, g a.i./ha: Pirimor 250, I-9 36, I-2 36, I-4 42; for Kill (%) 7 d: 7 d after treatment; for Kill (%) 15 d: 15 d after treatment
# Experimental: In three replications, plots of a size of 10 m^2 with broad beans of the cultivar “Fruhe Weisskeimige” are treated against Aphis fabae. The application is carried out using a knapsack sprayer operated with pressurized air. Here, the active compounds Example (I-9) (240 SC), Example (I-2) (240 SC) and Example (I-4) (240 SC), in a tank mix with 0.2% of rapeseed oil methyl ester (500 EW), and the commercial standard Pirimor (50 WG) are tested at the stated application rates. Application is carried out once. The application rate is 500 l of water/ha.
# Evaluation is carried out 7 and 15 days after the treatment by rating the kill of the nymphs on the leaves.
# Dysaphis plantaginea = assay: Example 41: apple trees treated against Dysaphis plantaginea (Henderson and Tilton); settings: live animals on shoots, % a.i.: imidacloprid 0.007, I-9 0.0144, I-2 0.0144; for Effect (%) 7 d: 7 d after treatment; for Effect (%) 14 d: 14 d after treatment
# Experimental: In three replications, three about 8-year-old apple trees of the cultivar “Golden Delicious” are treated eradicatively against Dysaphis plantaginea and Aphis pomi. The application is carried out using a motor-operated barrow-mounted sprayer. Here, the active compounds Example (I-9) (240 SC) and Example (I-2) (240 SC) in the stated amount are tested against the commercial standard imidacloprid (200 SL), at the stated application rate. The application rate is 1200 l of water/ha.
# Evaluation is carried out before and also 7 d and 14 d after the treatment by counting the live animals on the shoots. The efficacy is then calculated by calculating the effect on the population in percent according to Henderson and Tilton.
# Bemisia tabaci = assay: Example 32: bell peppers treated against Bemisia tabaci; settings: larvae on leaves, % a.i.: imidacloprid 0.02, I-9, I-2, I-11 0.0144; for Kill (%) 7 d: 7 d after second treatment; for Kill (%) 14 d: 14 d after second treatment; for Kill (%) 22 d: 22 d after second treatment
# Experimental: In three replications, plots of a size of 10 m^2 with bell peppers of the cultivar “Italiano” are treated against Bemisia tabaci. The application is carried out using a motor-operated knapsack sprayer. Here, the active compounds Example (I-9) (240 SC), Example (I-2) (60 SC) and Example (I-11) (60 SC) and the commercial standard imidacloprid (200 SL) are applied at the stated application rates. Three applications at an interval of 14 or 15 days are carried out, at an application rate of 1000 or 1100 l of water/ha.
# Evaluation is carried out 7, 14 and 22 days after the second treatment by rating the kill of the animals (larvae) on the leaves.
# Myzus persicae = assay: Example 47: peach trees infested with Myzus persicae; settings: live animals on shoots, Henderson and Tilten, g a.i./ha/m crown height: imidacloprid 25, I-4 24; for Effect (%) 7 d: 7 d after application; for Effect (%) 14 d: 14 d after application; for Effect (%) 21 d: 21 d after application
# Experimental: In three replications, under practical conditions, about 18-year-old peach trees of the cultivar “Vivian” infested with Myzus persicae are treated with Example (I-4) (240 SC) in a tank mix with 0.2% a.i. of rapeseed oil methyl ester (500 EW) in comparison to the commercial standard imidacloprid 200 SL, at the stated application rates. The application is carried out using a motor-operated knapsack sprayer. The application rate is 1000 l of water/ha.
# Evaluation is carried out 7, 14 and 21 days after the application by counting the live animals on the shoots. The efficacy is then calculated by calculating the effect on the population in percent according to Henderson and Tilten.
# Phorodon humuli = assay: Example 44: hop plants treated against hop aphid; settings: on leaves, % a.i.: imidacloprid 0.0053, I-9 0.0036, I-4 0.0084; for Kill (%) 6 d: 6 d after treatment; for Kill (%) 46 d: 46 d after treatment
# Experimental: In two replications, about 4-year-old hop plants of the cultivar “Spalter” are treated against the hop aphid Phorodon humuli. The application is carried out using a knapsack sprayer operated with pressurized air. Here, the active compounds Example (I-9) (240 SC) and Example (I-4) (240 SC), in a tank mix with 0.1% a.i. of rapeseed oil methyl ester (500 EW), and the standard imidacloprid are applied at the stated application rates. The application rate is 1200 l of water/ha.
# The first evaluation is carried out 6 days and the last evaluation 46 days after the treatment by rating the kill of the animals on the leaves.
# Aleurodes citri = assay: Example 31: orange tree treated against Aleurodes citri; settings: on leaves, g a.i./ha/m crown height: imidacloprid 75, I-4 72; for Kill (%) 7 d: 7 d after treatment; for Kill (%) 14 d: 14 d after treatment; for Kill (%) 21 d: 21 d after treatment
# Experimental: In four replications, in each case one orange tree of the cultivar “Newhall” is treated against Aleurodes citri. Here, the active compound Example (I-4) (240 SC) is, at the stated application rate, tested against the commercial standard imidacloprid. The active compounds are applied in a tank mix with 0.5% a.i. of Oliocin (700 EW), at an application rate of 1500 l of water/ha. The application is carried out using a motor-operated knapsack sprayer.
# Evaluation is carried out 7, 14 and 21 days after the treatment by rating the kill of the animals on the leaves.
# Viteus vitifolii = assay: Example 4: vines treated against Viteus vitifolii; settings: 60 days after last of three treatments, on roots, imidacloprid drip irrigation 560 g/ha, I-4 0.0168%, I-9 0.0144% leaf spray
# Experimental: In four replications, three in each case about 12-year-old vines of the cultivar “Auvemat” are treated against Viteus vitifolii. As commercial standard, imidacloprid is used at the recommended application rate by drip irrigation. The application of the active compounds is by spray application to the leaves using a knapsack operated with pressurized air. Here, the active compounds Example (I-4) (240 SC) and Example (I-9) (240 SC) are applied in a tank mix with 0.1% a.i. of rapeseed oil methyl ester (500 EW) at the stated amount. There are three applications on day 1, 2 and 15. The application rate is 1776 l of water/ha.
# Evaluation is carried out 60 days after the last treatment by rating the kill on the roots in percent.
# Pseudococcus spp. = assay: Example 28: vines treated against Pseudococcus spp.; settings: 28 days after last of two treatments, on grapes, imidacloprid drip irrigation 560 g/ha, I-4 0.0168%, I-9 0.0144% spray
# Experimental: In four replications, three in each case about 12-year-old vines of the cultivar “Auvemat” are treated against Pseudococcus spp. The commercial standard used is an application with imidacloprid at the recommended application rate, by drip irrigation. The active compounds are applied by spraying using a knapsack sprayer operated with pressurized air. Here, the active compounds Example (I-4) (240 SC) and Example (I-9) (240 SC) are applied in a tank mix with 0.1% a.i. of rapeseed oil methyl ester (500 EW), at the stated amount. Two applications are carried out at an interval of 15 days. The application rate is 1776 l of water/ha. Evaluation is carried out 28 days after the last treatment by rating the kill on grapes in percent.
SMILES,Kill (%) 7 d (Aphis fabae) [%],Kill (%) 15 d (Aphis fabae) [%],Effect (%) 7 d (Dysaphis plantaginea) [%],Effect (%) 14 d (Dysaphis plantaginea) [%],Kill (%) 7 d (Bemisia tabaci) [%],Kill (%) 14 d (Bemisia tabaci) [%],Kill (%) 22 d (Bemisia tabaci) [%],Effect (%) 7 d (Myzus persicae) [%],Effect (%) 14 d (Myzus persicae) [%],Effect (%) 21 d (Myzus persicae) [%],Kill (%) 6 d (Phorodon humuli) [%],Kill (%) 46 d (Phorodon humuli) [%],Kill (%) 7 d (Aleurodes citri) [%],Kill (%) 14 d (Aleurodes citri) [%],Kill (%) 21 d (Aleurodes citri) [%],Kill (%) (Viteus vitifolii),Kill (%) (Pseudococcus spp.)
CCOC(=O)OC1=C(c2cc(C)ccc2Br)C(=O)NC12CCC(OC)CC2 (stereo not shown) [Example (I-2)],98.6,100,92.3,99.2,84.7,92.6,85.6,–,–,–,–,–,–,–,–,–,–
CCOC(=O)OC1=C(c2cc(C)ccc2C)C(=O)NC12CCC(OC)CC2 (stereo not shown) [Example (I-4)],100,100,–,–,–,–,–,94.0,98.9,93.3,95,98.7,90.9,99.5,99.9,55,99
"O=[N+]([O-])NC1=NCCN1Cc1ccc(Cl)nc1 [imidacloprid, reference compound]",–,–,99.6,99.5,75.8,67.2,69.4,97.6,95.8,78.1,99,97.6,98.4,99.6,99.4,26,100
